According to US20020123514A1, “Treatment of diabetes with thiazolidinedione and alpha-glucosidase inhibitor” (SmithKline Beecham plc, priority 1997, published 2002):

Assay: Pharmacokinetic interaction study: single oral dose of Compound (I) alone and coadministered with acarbose
Type: in vivo, healthy volunteers
Method: This study investigated whether administration of acarbose (A) alters the PK of co-administered Compound (I). Sixteen healthy volunteers (24-59 yo) received a single oral dose of Compound (I) (8 mg) on Day 1, followed by 7 days of repeat dosing with A (100 mg tid with meals). On Day 8, a single oral dose of Compound (I) was coadministered with the morning dose of A. PK profiles following Compound (I) dosing on Days 1 and 8 were compared. […] PK data and point estimates [95% confidence intervals] for Compound (I)+A: Compound (I) alone were analyzed.

[1] = human, in vivo, Compound (I) alone, single oral dose 8 mg, Day 1, healthy volunteers

| effect on Compound (I) clearance (acarbose 100 mg tid coadministered, changes small, not likely clinically relevant) | AUC(0-inf) [1] [ng·h/mL] | Cmax [1] [ng/mL] | half-life (human, in vivo, Compound (I) alone, single oral dose 8 mg, Day 1, healthy volunteers, read-out: T½ (converted)) [min] | Tmax (human, in vivo, Compound (I) alone, single oral dose 8 mg, Day 1, median (range)) [h] | Structure (SMILES) |
| --- | --- | --- | --- | --- | --- |
| slightly increase |  |  |  |  | C[C@H]1O[C@H](O[C@H]2[C@H](O)[C@@H](O)[C@@H](O[C@H]3[C@H](O)[C@@H](O)C(O)O[C@@H]3CO)O[C@@H]2CO)[C@H](O)[C@@H](O)[C@@H]1N[C@H]1C=C(CO)[C@@H](O)[C@H](O)[C@H]1O (some centres unmarked) [acarbose, reference compound] |
|  | 2790 | 428 | 296 | 1.48 | CN(CCOc1ccc(CC2SC(=O)NC2=O)cc1)c1ccccn1 (centres unmarked) [Compound (I), 5-[4-[2-(N-methyl-N-(2-pyridyl)amino)ethoxy]benzyl]thiazolidine-2,4-dione] |
